# From paper PMC9706563, “Development of Macrocyclic PRMT5–Adaptor Protein Interaction Inhibitors” (Journal of Medicinal Chemistry, 2022)
# “Also recorded” adds a separate entry of the source. Read-outs that look alike come from different tables or passages of the source.
# Assays:
# PRMT5-MEP50 complex = biological target: T1, PRMT5-MEP50 complex (Homo sapiens, UniProt O14744); experiment: Pull-down with peptides immobilized on DBCO beads, MCF7 cell lysate; assay type: binding; details: for enrichment of the PRMT5-MEP50 complex by immobilized peptide: MCF7 cell lysate, DBCO beads, western blot
# T1 construct: endogenous in cells; host or cells: MCF7
# T1 sequence (O14744 whole entry): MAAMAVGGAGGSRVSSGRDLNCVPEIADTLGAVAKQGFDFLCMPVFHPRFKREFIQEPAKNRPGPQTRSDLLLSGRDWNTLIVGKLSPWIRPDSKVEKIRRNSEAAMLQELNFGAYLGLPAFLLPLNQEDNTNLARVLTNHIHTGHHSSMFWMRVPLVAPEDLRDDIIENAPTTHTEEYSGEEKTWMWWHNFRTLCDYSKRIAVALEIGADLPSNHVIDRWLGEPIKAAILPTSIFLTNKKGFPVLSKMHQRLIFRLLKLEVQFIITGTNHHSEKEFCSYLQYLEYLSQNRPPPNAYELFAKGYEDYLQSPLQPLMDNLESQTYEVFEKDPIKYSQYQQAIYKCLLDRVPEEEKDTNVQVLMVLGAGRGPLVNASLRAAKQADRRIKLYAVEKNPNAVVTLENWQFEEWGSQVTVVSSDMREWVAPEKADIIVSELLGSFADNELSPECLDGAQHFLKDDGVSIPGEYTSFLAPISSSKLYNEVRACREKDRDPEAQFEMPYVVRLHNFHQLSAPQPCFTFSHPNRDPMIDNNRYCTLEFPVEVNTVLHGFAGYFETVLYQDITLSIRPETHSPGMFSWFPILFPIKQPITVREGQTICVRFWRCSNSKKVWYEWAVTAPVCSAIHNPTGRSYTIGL
# T1 sequence (Q9BQA1 whole entry partner): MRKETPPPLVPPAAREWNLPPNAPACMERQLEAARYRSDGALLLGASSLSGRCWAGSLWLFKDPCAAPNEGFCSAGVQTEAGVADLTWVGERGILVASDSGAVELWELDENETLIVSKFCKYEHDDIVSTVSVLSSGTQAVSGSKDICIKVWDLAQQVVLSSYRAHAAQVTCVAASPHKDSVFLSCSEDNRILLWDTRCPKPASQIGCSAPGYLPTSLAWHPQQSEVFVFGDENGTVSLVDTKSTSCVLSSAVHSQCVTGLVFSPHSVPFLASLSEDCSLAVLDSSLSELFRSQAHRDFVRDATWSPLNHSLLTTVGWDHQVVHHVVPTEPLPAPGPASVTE
# Experimental: DBCO agarose beads (300 μL; Jena Bioscience, Germany) were washed three times with PBS (600 μL, pH 7.4). To the beads suspended in PBS (600 μL) was added a 10 mM solution of azide-labeled peptide in DMSO or pure DMSO. The obtained suspensions were incubated overnight at 4 °C. The beads were washed with PBS three times for 10 min. MCF7 cells were harvested and lysed using Triton X100 lysis buffer (NaCl 150 mM, HEPES 25 mM, TCEP 1 mM, 1% Triton x100, 1% NP40 alternative, protease, and phosphatase inhibitor, pH 7.4). Empty beads, beads bound to an active peptide (55), or beads bound to a scrambled peptide (56) were added to the lysate (6 mg/mL) and rotated at 4 °C overnight. Beads attached to the active peptides were also incubated in the lysate containing a nonimmobilized/free active macrocycle (53 at 100 μM). Beads were collected by centrifugation (800g for 1 min) and washed three times for 10 min with PBS (500 μL). The beads were suspended in SDS-PAGE protein loading buffer (20 uL; […], 8% v/v glycerol, 2% SDS, […] (DTE), 0.02% bromophenol blue, pH 6.8), heated with shaking for 10 min at 95 °C, and centrifuged at 350 rpm. The obtained solutions were analyzed by western blotting using 10% acrylamide gels, and PVDF membranes and the relevant proteins were fluorescently detected using antibodies against PRMT5 and MEP50 and the corresponding secondary IRDye antibodies.
# PRMT5-MEP50 [1] = biological target: T2, PRMT5-MEP50 (Homo sapiens, UniProt O14744); experiment: Competitive binding FP assay, FITC-labeled 50 as tracer
# T2 construct: The compounds were tested by means of FP with the full-length PRMT5-MEP50 complex; made in house
# T2 sequence (O14744 whole entry): as the sequence (O14744 whole entry) above
# T2 sequence (Q9BQA1 whole entry partner): as the sequence (Q9BQA1 whole entry partner) above
# Experimental: (§1) The competitive binding assay was performed in a buffer of 50 mM HEPES, 250 mM NaCl, 1 mM TCEP, and 0.01% (v/v) Tween 20, 8.0 pH, in black, 384-well plates with a total volume of 10 μL per well. The FITC-labeled peptides or the Alexa 488-labeled pICln protein, at a final concentration of 1 nM, were mixed with PRMT5-MEP50 (at a final concentration of 194 nM when used with peptide 50, 600 nM with compound S1 [see Table S3] and 21, and 27 nM in the case of Alexa 488-labeled pICln), and the appropriate nonlabeled peptide or protein was titrated as two-fold dilution series. The plates were incubated at room temperature for up to 1 h 45 min and analyzed on a plate reader using 485 nm excitation and 535 nm emission wavelength. The experiment was performed in triplicate.
# PRMT5-MEP50 + pICln = biological target: T3, PRMT5-MEP50 + pICln (Homo sapiens, UniProt O14744); experiment: Competitive FP assay with Alexa 488-labeled full-length human pICln; assay type: binding
# T3 construct: made in house
# T3 sequence (O14744 whole entry): as the sequence (O14744 whole entry) above
# T3 sequence (Q9BQA1 whole entry partner): as the sequence (Q9BQA1 whole entry partner) above
# Experimental: To a solution of the full-length pICln protein (ca. 1 mg/mL) in 0.2 M bicarbonate buffer with 1 mM TCEP at pH 8.3 was added 10 mM Alexa […] in DMSO (8 equiv). The solution was kept on ice under dark conditions overnight. The protein was washed 8–10 times with a buffer intended for the fluorescence polarization assay (50 mM HEPES, 250 mM NaCl, 1 mM TCEP, 8.0 pH) using an Amicon Ultra-0.5 mL spin filter (Merck, Germany). Protein concentration was determined using the NanoDrop spectrophotometer.
# The competitive binding assay was performed in a buffer of 50 mM HEPES, 250 mM NaCl, 1 mM TCEP, and 0.01% (v/v) Tween 20, 8.0 pH, in black, 384-well plates with a total volume of 10 μL per well. […] The plates were incubated at room temperature for up to 1 h 45 min and analyzed on a plate reader using 485 nm excitation and 535 nm emission wavelength. The experiment was performed in triplicate.
# TIM-MEP50 complex = biological target: T4, TIM-MEP50 complex (Homo sapiens, UniProt O14744); experiment: Thermal shift assay (TSA); assay type: binding; details: for increase of the average melting temperature: TSA, PRMT5 TIM barrel-MEP50 complex, n = 6; for TSA Average Tm (°C): supplementary CSV
# T4 construct: made in house
# T4 sequence (O14744 13-292 limits assumed): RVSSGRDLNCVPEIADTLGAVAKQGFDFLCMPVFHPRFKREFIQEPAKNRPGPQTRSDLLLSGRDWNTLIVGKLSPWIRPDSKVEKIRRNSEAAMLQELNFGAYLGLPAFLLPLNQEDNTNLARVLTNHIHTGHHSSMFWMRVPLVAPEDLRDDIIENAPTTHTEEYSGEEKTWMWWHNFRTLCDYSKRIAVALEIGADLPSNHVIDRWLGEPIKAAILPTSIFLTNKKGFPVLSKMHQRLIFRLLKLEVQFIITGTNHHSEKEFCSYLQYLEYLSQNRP
# T4 sequence (Q9BQA1 whole entry partner): as the sequence (Q9BQA1 whole entry partner) above
# Experimental: Thermal Shift Assays of peptides on the TIM-MEP50 complex were carried out in a 96-well PCR plate (LightCycler 480 Multiwell Plates 96, white, 04729692001). The purified protein complex was appropriately diluted in a buffer containing 50 mM HEPES (pH = 8.0), 250 mM NaCl, and 1 mM TCEP. All assay experiments used 5.36 μg of protein per well and […] 5000X Sypro Orange (Invitrogen) up to a total volume of 25 μL, with a resultant protein concentration of 3 μM and 5X SYPRO. Peptides were supplied at 10 mM concentration in DMSO. The PCR plates were sealed with an optical seal (LightCycler 480 Sealing Foil, 04729757001), shaken, and centrifuged after protein and compounds were added. Thermal scanning (25–95 °C at 1 °C/min) was performed using a real-time PCR setup (LightCycler 480 – Roche), and fluorescence intensity was measured after every temperature increment step. Analysis of the raw data was performed using internally developed software. Statistical validation of Tm shift relevance was performed using the Student’s t test (n = 6).
# PRMT5-MEP50 [2] = biological target: T2, PRMT5-MEP50; experiment: MTase-Glo methyltransferase activity assay; assay type: biochemical; details: H4 histone tail peptide substrate
# Experimental: The assay was performed in 1× reaction buffer of 20 mM Tris, 50 mM NaCl, 1 mM EDTA, 3 mM MgCl2, 0.1 mg/mL BSA, and 1 mM DTT at pH = 8.0 in white, 384-well plates. […] The plate was incubated at 20–21 °C for 1 h. MTase-Glo detection solution (5 μL) was added, and the plate was incubated at 20–21 °C for 1 h, followed by a luminescence measurement at a plate reader. The experiment was performed in triplicate.
# [3] = biological target: T5, PRMT5-MEP50 / RioK1 interaction (Homo sapiens, UniProt O14744); experiment: GFP immunopurification from Flp-In T-REx 293 S100 extracts, RioK1 readout; assay type: binding; details: 50 μM
# T5 construct: expressed in transfected cells; host or cells: Flp-In T-REx 293
# T5 sequence (O14744 whole entry): as the sequence (O14744 whole entry) above
# T5 sequence (Q9BQA1 whole entry partner): as the sequence (Q9BQA1 whole entry partner) above
# Experimental: (§2) Harvested Flp-In T-Rex 293 cells were incubated with Roeder A buffer[32] in three times sample weight for 10 min at room temperature, dounced 10 times, and adjusted to 150 mM NaCl. After centrifugation at 17,000 g for 30 min, the supernatants (S100 extracts) were used for immunopurification and treatment with inhibitors.
# (§3) For the treatment, the S100 extracts of GFP, GFP-PRMT5, GFP-RioK1, and GFP-pICln were incubated with DMSO, active 53, and scrambled 54, used at a concentration of 50 μM. The incubation with the S100 extract was carried out for 1 h at room temperature. For GFP immunopurification, S100 extracts were incubated with GFP-Trap_A beads (ChromoTek) at 4 °C for 2 h with rotation. Purified proteins were washed 3 times with washing buffer (150 mM NaCl, 50 mM Tris/HCl pH 7.5, 1 mM EDTA, 1 mM EGTA, and 0.01% Igepal with protease inhibitors), eluted in sample buffer [375 mM Tris pH 7.5; 25.8% (w/v) glycerol; 12.3% (w/v) SDS; 0.06% (w/v) bromophenol blue; and 6% (v/v) β-mercaptoethanol; pH 6.8], and analyzed by immunoblotting.
# (§4) Immunopurification samples were separated by Tris/Tricine or Tris/Glycine SDS gel electrophoresis[33] and transferred to PVDF membranes (Immobilon-FL, Merck Millipore). The immunoblot analysis was performed using the indicated antibodies against RioK1, PRMT5, MEP50, pICln, and GFP, and the signals were detected with an Odyssey LI-COR Imaging System.
# [4] = biological target: T6, PRMT5-MEP50 / pICln interaction (Homo sapiens, UniProt O14744); experiment: GFP immunopurification from Flp-In T-REx 293 S100 extracts, pICln readout; assay type: binding; details: 50 μM
# T6 construct: expressed in transfected cells; host or cells: Flp-In T-REx 293
# T6 sequence (O14744 whole entry): as the sequence (O14744 whole entry) above
# T6 sequence (Q9BQA1 whole entry partner): as the sequence (Q9BQA1 whole entry partner) above
# Experimental: as §2, §3, §4
# [5] = Stability assay in cell lysate; assay type: in vitro ADME
# Experimental: To the whole cell lysate prepared from U2OS cells with the freeze–thaw method was added the appropriate peptide, resulting in a mixture of 0.5 mg/mL protein and 600 μM peptide in PBS, and incubated at 37 °C. The samples were taken at 0, 15, 30 min, 1, 2, 4 h, 1, 3, and 7-days time points and mixed with an equal volume of ice-cold ethylparaben solution in MeOH (0.1 mg/mL), used as the internal standard. The samples were kept on ice for 15 min and centrifuged at 16,873 × g at 4 °C for 5 min. The obtained supernatant was then analyzed by HPLC, the peptide and the internal standard peaks at 210 nm were integrated, and the ratio of the peptide peak surface area to the internal standard was calculated. The experiment was conducted in duplicate.
# PRMT5-MEP50 [6] = biological target: T2, PRMT5-MEP50; experiment: Competitive binding FP assay, compound 21 as tracer
# Experimental: as §1
smiles,measurement,setting,value
CC(=O)N1CCC[C@H]1C(=O)N[C@H](C(=O)N[C@@H]1CCCCC[C@@H](C(=O)N[C@@H](Cc2ccc([N+](=O)[O-])cc2)C(=O)N[C@@H](CC(C(=O)O)C(=O)O)C(=O)N[C@@H](CCC(N)=O)C(=O)N[C@@H](CCCCNC(=O)COCCOCCOCCN=[N+]=[N-])C(N)=O)NC(=O)[C@H](CC(=O)O)NC(=O)[C@H](C)NC1=O)C(C)C [Compound 56],enrichment of the PRMT5-MEP50 complex by immobilized peptide,PRMT5-MEP50 complex,did not show significant interaction
CC(=O)N1CCC[C@H]1C(=O)N[C@H](C(=O)N[C@@H]1CCCCC[C@@H](C(=O)N[C@@H](Cc2ccc([N+](=O)[O-])cc2)C(=O)N[C@@H](CC(C(=O)O)C(=O)O)C(=O)N[C@@H](CCC(N)=O)C(N)=O)NC(=O)[C@H](CC(=O)O)NC(=O)[C@H](C)NC1=O)C(C)C [Compound 54],Ki,PRMT5-MEP50 [1]; from competitive FP with tracer 50,n.b.
same,PRMT5-MEP50 Ki (µM),"PRMT5-MEP50 [1]; from competitive FP with tracer 50, supplementary CSV",nb
same,IC50,"PRMT5-MEP50 + pICln; competition with Alexa 488-labeled pICln, 27 nM PRMT5-MEP50",did not compete
same,PRMT5-MEP50 + pICln IC50 (µM),"PRMT5-MEP50 + pICln; competition with labeled pICln, supplementary CSV",nb
same,increase of the average melting temperature,TIM-MEP50 complex,No stabilization
same,TSA Average Tm (°C),TIM-MEP50 complex,49.32 ± 0.18 °C
"O=C(NC[C@H](O)CN1CCc2ccccc2C1)c1cc(NC2COC2)ncn1 [EPZ015666, reference compound]",effect on direct methylation activity of PRMT5,PRMT5-MEP50 [2],is able to inhibit
CC(=O)N[C@H](C(=O)N1CCC[C@H]1C(=O)N[C@@H]1CCCCC[C@@H](C(=O)N[C@@H](CC(=O)O)C(=O)N[C@@H](C)C(=O)N[C@@H](CC(C(=O)O)C(=O)O)C(=O)N[C@@H](CCCCNC(=O)COCCOCCOCCN=[N+]=[N-])C(N)=O)NC(=O)[C@H](Cc2ccc([N+](=O)[O-])cc2)NC(=O)[C@H](CCC(N)=O)NC1=O)C(C)C [Compound 55],enrichment of the PRMT5-MEP50 complex by immobilized peptide,PRMT5-MEP50 complex,successfully enriched the PRMT5-MEP50 complex
CC(=O)N[C@H](C(=O)N1CCC[C@H]1C(=O)NC1CCCCC[C@@H](C(=O)N[C@@H](CC(=O)O)C(=O)N[C@@H](C)C(=O)N[C@@H](CC(C(=O)O)C(=O)O)C(N)=O)NC(=O)[C@H](Cc2ccc([N+](=O)[O-])cc2)NC(=O)[C@H](CCC(N)=O)NC1=O)C(C)C (stereo in doubt) [Compound 53],competition of free peptide with immobilized 55,PRMT5-MEP50 complex; 100 μM nonimmobilized peptide in MCF7 lysate,demonstrated competition between the immobilized and free peptide
same,enrichment of RioK1 with GFP-PRMT5,[3]; GFP-PRMT5 IP,enrichment of RioK1 was blocked
same,interaction of RioK1 with PRMT5-MEP50,[3]; GFP-RioK1 IP,fully inhibited RioK1 from interacting with the PRMT5-MEP50 complex
same,binding of pICln to the complex with GFP-PRMT5,[4]; GFP-PRMT5 IP,binding of pICln to the complex was not inhibited
same,interaction of pICln with PRMT5-MEP50,[4]; GFP-pICln IP,pICln still engaged with it
same,increase of the average melting temperature,TIM-MEP50 complex,2.27 °C
same,TSA Average Tm (°C),TIM-MEP50 complex,51.75 ± 0.42 °C
CC(=O)N[C@H](C(=O)N1CCC[C@H]1C(=O)NC1CCCCC[C@@H](C(=O)N[C@@H](CC(=O)O)C(=O)N[C@@H](C)C(=O)N[C@@H](CC(=O)O)C(N)=O)NC(=O)[C@H](Cc2ccccc2)NC(=O)[C@H](CCC(N)=O)NC1=O)C(C)C (stereo in doubt) [Compound 30],IC50,"PRMT5-MEP50 [1]; competitive FP, compound 50 as tracer, 194 nM PRMT5-MEP50",1060 ± 240 nM
same,IC50,"PRMT5-MEP50 + pICln; competition with labeled pICln, supplementary CSV, read-out: PRMT5-MEP50 + pICln IC50",3200 ± 2400 nM
same,TSA Average Tm (°C),TIM-MEP50 complex,51.32 ± 0.00 °C
same,half-life,"[5]; U2OS cell lysate, 37 °C, 600 μM peptide, read-out: half-life (converted)",12.5 days
same,increase of half-life over the linear 31,"[5]; cell lysate, 37 °C",70 fold
same,Half-llife in Lysate,[5]; supplementary CSV,12.5 days
same,IC50,"PRMT5-MEP50 [6]; competitive FP, compound 21 as tracer, 600 nM PRMT5-MEP50",1170 ± 290 nM
same,Ki,PRMT5-MEP50 [6]; from competitive FP with tracer 21,313 ± 121 nM
same,effect on direct methylation activity of PRMT5,PRMT5-MEP50 [2],has no effect; also recorded: does not interfere with the direct methylation activity of the enzyme
